The values below come from patent US20230091042A1, “SMARCA2-VHL DEGRADERS” (AMGEN INC., priority 2020, published 2023).

Assay [1] deals with T1, SMARCA2 (Homo sapiens, UniProt P51531).
T1 construct: endogenous in cells; host or cells: A375 cells (ATCC CRL-1619)
As to the kind of experiment: SMARCA2 MSD assay in A375 cells (SMARCA2 degradation, 2 h). Conditions: 2 h compound treatment, N/C = no curve; for DC50: read-out: A375 SMARCA2 MSD IC50 IP. In kind it is cell-based. The protocol:
(§1) SMARCA2 and SMARCA4 MSD Assays in A375 Cells:
A375 cells (ATCC® CRL-1619™) were cultured in RPMI 1640 Medium (ThermoFisher Scientific 11875093) containing 10% fetal bovine serum (ThermoFisher Scientific 16000044) and 1× penicillin-streptomycin-glutamine (ThermoFisher Scientific 10378016). Sixteen hours prior to compound treatment, cells were seeded in 96-well cell culture plates (Corning 3904) at a density of 2.5×10^5 cells/well (90 uL/well) and incubated at 37° C., 5% CO2. A 1:3 compound dose-response titration was diluted in growth media (1:20), added to appropriate wells of a cell culture plate (1:10) and then assay plates were incubated at 37° C., 5% CO2. After 2 h of compound treatment, cells were lysed in MSD lysis buffer (MSD R60TX-2) containing protease (Roche 04693116001) and phosphatase (Roche 04906837001) inhibitors.
. Plates were washed with 300 μL per well MSD wash buffer (MSD R61TX-1) between each step. Following the last incubation, plates were washed with MSD wash buffer then 150 uL of MSD read buffer (MSD R92TC-2) was added to each well. Plates were immediately read on a MSD plate reader (MSD Sector Imager 6000) and data was analyzed using a 4-parameter logistic model to calculate IC50 values.

The target of assay [2] is T2, SMARCA4 (Homo sapiens, UniProt P51532).
T2 construct: After 2 h of compound treatment, cells were lysed in MSD lysis buffer; endogenous in cells; host or cells: A375 cells (ATCC CRL-1619)
T2 sequence (P51532 whole entry): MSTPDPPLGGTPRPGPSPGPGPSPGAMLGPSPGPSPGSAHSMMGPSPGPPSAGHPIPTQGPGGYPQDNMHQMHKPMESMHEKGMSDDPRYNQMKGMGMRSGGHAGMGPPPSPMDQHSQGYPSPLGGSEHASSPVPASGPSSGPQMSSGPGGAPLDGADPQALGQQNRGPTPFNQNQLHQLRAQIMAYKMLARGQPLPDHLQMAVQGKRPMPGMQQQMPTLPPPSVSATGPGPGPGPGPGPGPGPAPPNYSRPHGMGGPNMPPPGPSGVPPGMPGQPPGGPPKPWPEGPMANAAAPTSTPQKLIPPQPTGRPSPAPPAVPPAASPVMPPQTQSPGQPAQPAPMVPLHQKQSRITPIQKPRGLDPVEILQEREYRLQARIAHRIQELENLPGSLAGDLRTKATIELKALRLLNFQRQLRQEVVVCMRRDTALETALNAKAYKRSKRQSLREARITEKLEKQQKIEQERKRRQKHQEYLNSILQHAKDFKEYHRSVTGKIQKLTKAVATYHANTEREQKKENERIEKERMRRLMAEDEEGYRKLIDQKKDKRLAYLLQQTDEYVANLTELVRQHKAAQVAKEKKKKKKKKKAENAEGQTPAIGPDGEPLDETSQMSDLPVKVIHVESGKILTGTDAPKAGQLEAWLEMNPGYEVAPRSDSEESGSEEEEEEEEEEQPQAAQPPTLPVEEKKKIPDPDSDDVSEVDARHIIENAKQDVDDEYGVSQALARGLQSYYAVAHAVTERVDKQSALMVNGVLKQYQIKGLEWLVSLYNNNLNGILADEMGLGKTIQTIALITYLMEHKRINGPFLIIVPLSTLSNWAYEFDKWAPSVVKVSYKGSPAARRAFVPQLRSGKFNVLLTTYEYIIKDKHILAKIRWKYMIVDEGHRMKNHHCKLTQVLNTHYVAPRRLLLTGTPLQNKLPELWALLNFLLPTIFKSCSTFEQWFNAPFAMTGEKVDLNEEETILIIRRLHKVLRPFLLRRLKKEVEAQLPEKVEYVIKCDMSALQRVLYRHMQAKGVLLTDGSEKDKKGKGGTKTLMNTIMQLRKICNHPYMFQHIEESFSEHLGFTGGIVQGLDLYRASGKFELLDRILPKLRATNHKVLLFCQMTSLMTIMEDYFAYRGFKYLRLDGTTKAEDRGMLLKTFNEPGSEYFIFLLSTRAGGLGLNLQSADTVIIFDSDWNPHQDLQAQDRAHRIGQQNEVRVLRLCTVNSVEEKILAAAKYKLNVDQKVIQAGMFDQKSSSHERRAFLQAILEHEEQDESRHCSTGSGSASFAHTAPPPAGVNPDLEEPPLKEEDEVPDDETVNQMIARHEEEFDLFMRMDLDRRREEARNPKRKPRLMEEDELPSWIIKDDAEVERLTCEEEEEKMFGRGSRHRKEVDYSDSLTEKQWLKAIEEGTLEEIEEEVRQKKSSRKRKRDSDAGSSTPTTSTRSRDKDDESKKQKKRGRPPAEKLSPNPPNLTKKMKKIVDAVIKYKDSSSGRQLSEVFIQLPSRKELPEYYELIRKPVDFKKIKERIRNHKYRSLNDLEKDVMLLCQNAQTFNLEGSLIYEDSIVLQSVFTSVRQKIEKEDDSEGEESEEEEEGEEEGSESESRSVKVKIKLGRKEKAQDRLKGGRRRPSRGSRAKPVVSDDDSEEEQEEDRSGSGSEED
The experiment in a line: SMARCA4 MSD assay in A375 cells (SMARCA4 degradation, 2 h). In kind it is cell-based. Conditions: 2 h compound treatment, N/C = no curve. The protocol:
as §1
A 1:3 compound dose-response titration was diluted in growth media (1:20), added to appropriate wells of a cell culture plate (1:10) and then assay plates were incubated at 37° C., 5% CO2.
Plates were washed with 300 μL per well MSD wash buffer (MSD R61TX-1) between each step. Following the last incubation, plates were washed with MSD wash buffer then 150 uL of MSD read buffer (MSD R92TC-2) was added to each well. Plates were immediately read on a MSD plate reader (MSD Sector Imager 6000) and data was analyzed using a 4-parameter logistic model to calculate IC50 values.

T1 sequence (P51531 whole entry): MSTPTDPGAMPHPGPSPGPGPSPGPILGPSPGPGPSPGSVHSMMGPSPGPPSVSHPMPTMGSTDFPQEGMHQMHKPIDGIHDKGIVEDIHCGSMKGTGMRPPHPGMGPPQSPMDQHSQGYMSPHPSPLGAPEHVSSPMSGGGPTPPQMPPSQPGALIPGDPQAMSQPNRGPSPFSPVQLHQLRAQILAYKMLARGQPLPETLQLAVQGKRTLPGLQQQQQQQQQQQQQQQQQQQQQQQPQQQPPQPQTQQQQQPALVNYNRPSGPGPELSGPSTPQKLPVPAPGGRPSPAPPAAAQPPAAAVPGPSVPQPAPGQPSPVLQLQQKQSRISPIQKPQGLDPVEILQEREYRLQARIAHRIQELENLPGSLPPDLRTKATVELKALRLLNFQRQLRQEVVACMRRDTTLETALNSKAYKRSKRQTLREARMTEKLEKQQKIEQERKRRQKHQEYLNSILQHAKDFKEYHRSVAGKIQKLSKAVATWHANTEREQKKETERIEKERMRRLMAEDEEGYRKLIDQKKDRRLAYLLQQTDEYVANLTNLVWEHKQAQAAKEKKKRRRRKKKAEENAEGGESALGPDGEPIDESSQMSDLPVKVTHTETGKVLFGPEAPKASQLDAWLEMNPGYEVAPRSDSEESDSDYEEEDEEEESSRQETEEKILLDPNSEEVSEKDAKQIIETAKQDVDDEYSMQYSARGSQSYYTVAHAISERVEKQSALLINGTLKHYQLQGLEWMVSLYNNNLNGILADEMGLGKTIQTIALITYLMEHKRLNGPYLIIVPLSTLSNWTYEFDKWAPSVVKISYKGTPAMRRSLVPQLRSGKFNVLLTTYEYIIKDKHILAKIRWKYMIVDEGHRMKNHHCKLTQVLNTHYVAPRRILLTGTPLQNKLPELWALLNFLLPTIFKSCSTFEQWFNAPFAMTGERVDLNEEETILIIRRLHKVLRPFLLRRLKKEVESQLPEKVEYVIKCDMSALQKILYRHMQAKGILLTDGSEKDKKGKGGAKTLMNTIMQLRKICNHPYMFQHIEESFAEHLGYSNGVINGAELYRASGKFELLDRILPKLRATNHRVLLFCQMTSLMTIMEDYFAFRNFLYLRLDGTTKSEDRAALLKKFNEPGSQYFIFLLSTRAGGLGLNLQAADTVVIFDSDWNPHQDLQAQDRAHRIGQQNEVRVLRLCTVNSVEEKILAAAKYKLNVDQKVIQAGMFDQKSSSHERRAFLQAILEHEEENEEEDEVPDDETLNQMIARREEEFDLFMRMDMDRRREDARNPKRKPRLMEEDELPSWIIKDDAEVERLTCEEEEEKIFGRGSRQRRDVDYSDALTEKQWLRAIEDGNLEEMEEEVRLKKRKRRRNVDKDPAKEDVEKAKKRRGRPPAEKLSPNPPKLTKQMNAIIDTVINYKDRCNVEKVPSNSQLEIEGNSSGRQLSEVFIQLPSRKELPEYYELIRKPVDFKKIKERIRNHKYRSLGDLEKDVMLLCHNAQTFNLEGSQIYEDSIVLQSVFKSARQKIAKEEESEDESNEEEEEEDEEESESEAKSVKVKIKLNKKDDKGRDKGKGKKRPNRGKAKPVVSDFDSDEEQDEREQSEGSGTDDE

Take `Cc1ncsc1-c1ccc(CNC(=O)[C@@H]2C[C@@H](O)CN2C(=O)[C@@H](NC(=O)c2ccnc(N3CCN(c4cc(-c5ccccc5O)nnc4N)CC3)c2)C(C)(C)C)cc1` [Example 1, 2-(4-(3-Amino-6-(2-hydroxyphenyl)pyridazin-4-yl)piperazin-1-yl)-N—((S)-1-((2S,4R)-4-hydroxy-2-((4-(4-methylthiazol-5-yl)benzyl)carbamoyl)pyrrolidin-1-yl)-3,3-dimethyl-1-oxobutan-2-yl)isonicotinamide]: the DC50 in assay [1] came out at 110 nM.
Turning to `Cc1ncsc1-c1ccc([C@H](C)NC(=O)[C@@H]2C[C@@H](O)CN2C(=O)[C@@H](NC(=O)c2cccc(N3CCN(c4cc(-c5ccccc5O)nnc4N)CC3)n2)C(C)(C)C)cc1` [Example 2, 6-(4-(3-Amino-6-(2-hydroxyphenyl)pyridazin-4-yl)piperazin-1-yl)-N—((S)-1-((2S,4R)-4-hydroxy-2-(((S)-1-(4-(4-methylthiazol-5-yl)phenyl)ethyl)carbamoyl)pyrrolidin-1-yl)-3,3-dimethyl-1-oxobutan-2-yl)picolinamide], the DC50 in assay [1] amounted to 120 nM.
The same measure, in the same setting: the figure for `Cc1ncsc1-c1ccc([C@H](C)NC(=O)[C@@H]2C[C@@H](O)CN2C(=O)[C@@H](NC(=O)c2ccnc(N3CCN(c4cc(-c5ccccc5O)nnc4N)CC3)c2)C(C)(C)C)cc1` [Example 3, 2-(4-(3-Amino-6-(2-hydroxyphenyl)pyridazin-4-yl)piperazin-1-yl)-N—((S)-1-((2S,4R)-4-hydroxy-2-(((S)-1-(4-(4-methylthiazol-5-yl)phenyl)ethyl)carbamoyl)pyrrolidin-1-yl)-3,3-dimethyl-1-oxobutan-2-yl)isonicotinamide] is 43 nM.
`Cc1ncsc1-c1ccc([C@H](C)NC(=O)[C@@H]2C[C@@H](O)CN2C(=O)[C@@H](NC(=O)c2cccc(N3CCN(c4cc(-c5ccccc5O)nnc4N)CC3)c2)C(C)(C)C)cc1` [Example 4, (2S,4R)-1-((S)-2-(3-(4-(3-Amino-6-(2-hydroxyphenyl)pyridazin-4-yl)piperazin-1-yl)benzamido)-3,3-dimethylbutanoyl)-4-hydroxy-N—((S)-1-(4-(4-methylthiazol-5-yl)phenyl)ethyl)pyrrolidine-2-carboxamide]: the DC50 in assay [1] was 22 nM.
`Cc1ncsc1-c1ccc([C@H](C)NC(=O)[C@@H]2C[C@@H](O)CN2C(=O)[C@@H](NC(=O)c2csc(N3CCN(c4cc(-c5ccccc5O)nnc4N)CC3)n2)C(C)(C)C)cc1` [Example 5, 2-(4-(3-Amino-6-(2-hydroxyphenyl)pyridazin-4-yl)piperazin-1-yl)-N—((S)-1-((2S,4R)-4-hydroxy-2-(((S)-1-(4-(4-methylthiazol-5-yl)phenyl)ethyl)carbamoyl)pyrrolidin-1-yl)-3,3-dimethyl-1-oxobutan-2-yl)thiazole-4-carboxamide]: the DC50 in assay [1] turned out to be 150 nM.
Regarding `Cc1ncsc1-c1ccc([C@H](C)NC(=O)[C@@H]2C[C@@H](O)CN2C(=O)[C@@H](NC(=O)c2ccc(N3CCN(c4cc(-c5ccccc5O)nnc4N)CC3)s2)C(C)(C)C)cc1` [Example 6, (2S,4R)-1-((S)-2-(5-(4-(3-Amino-6-(2-hydroxyphenyl)pyridazin-4-yl)piperazin-1-yl)thiophene-2-carboxamido)-3,3-dimethylbutanoyl)-4-hydroxy-N—((S)-1-(4-(4-methylthiazol-5-yl)phenyl)ethyl)pyrrolidine-2-carboxamide], in assay [1], the DC50 came out at 190 nM.
For `Cc1ncsc1-c1ccc([C@H](C)NC(=O)[C@@H]2C[C@@H](O)CN2C(=O)[C@@H](NC(=O)c2ccc(N3CCN(c4cc(-c5ccccc5O)nnc4N)CC3)nc2)C(C)(C)C)cc1` [Example 7, 6-(4-(3-Amino-6-(2-hydroxyphenyl)pyridazin-4-yl)piperazin-1-yl)-N—((S)-1-((2S,4R)-4-hydroxy-2-(((S)-1-(4-(4-methylthiazol-5-yl)phenyl)ethyl)carbamoyl)pyrrolidin-1-yl)-3,3-dimethyl-1-oxobutan-2-yl)nicotinamide], the “A375 SMARCA4 MSD IC50 IP” value in assay [2] is “N/C”. Also, in assay [1], the “A375 SMARCA2 MSD IC50 IP” value is on record as “N/C”.
Consider `Cc1ncsc1-c1ccc([C@H](C)NC(=O)[C@@H]2C[C@@H](O)CN2C(=O)[C@@H](NC(=O)Cc2ccnc(N3CCN(c4cc(-c5ccccc5O)nnc4N)CC3)c2)C(C)(C)C)cc1` [Example 8, (2S,4R)-1-((S)-2-(2-(2-(4-(3-Amino-6-(2-hydroxyphenyl)pyridazin-4-yl)piperazin-1-yl)pyridin-4-yl)acetamido)-3,3-dimethylbutanoyl)-4-hydroxy-N—((S)-1-(4-(4-methylthiazol-5-yl)phenyl)ethyl)pyrrolidine-2-carboxamide], for which the “A375 SMARCA4 MSD IC50 IP” value in assay [2] is “N/C”. The “A375 SMARCA2 MSD IC50 IP” value in assay [1] was “N/C”.
Regarding `Cc1ncsc1-c1ccc([C@H](C)NC(=O)[C@@H]2C[C@@H](O)CN2C(=O)[C@@H](NC(=O)CCc2ccnc(N3CCN(c4cc(-c5ccccc5O)nnc4N)CC3)c2)C(C)(C)C)cc1` [Example 9, (2S,4R)-1-((S)-2-(3-(2-(4-(3-Amino-6-(2-hydroxyphenyl)pyridazin-4-yl)piperazin-1-yl)pyridin-4-yl)propanamido)-3,3-dimethylbutanoyl)-4-hydroxy-N—((S)-1-(4-(4-methylthiazol-5-yl)phenyl)ethyl)pyrrolidine-2-carboxamide], in assay [2], the “A375 SMARCA4 MSD IC50 IP” value was “N/C”. Also, the “A375 SMARCA2 MSD IC50 IP” value in assay [1] is reported as “N/C”.
On to `Cc1ncsc1-c1ccc([C@H](C)NC(=O)[C@@H]2C[C@@H](O)CN2C(=O)[C@@H](NC(=O)c2cccc(N3CCN(c4nc(-c5ccccc5O)nnc4N)CC3)n2)C(C)(C)C)cc1` [Example 10, 6-(4-(6-Amino-3-(2-hydroxyphenyl)-1,2,4-triazin-5-yl)piperazin-1-yl)-N—((S)-1-((2S,4R)-4-hydroxy-2-(((S)-1-(4-(4-methylthiazol-5-yl)phenyl)ethyl)carbamoyl)pyrrolidin-1-yl)-3,3-dimethyl-1-oxobutan-2-yl)picolinamide], for which the DC50 in assay [1] stood at 250 nM.
On to `Cc1ncsc1-c1ccc([C@H](C)NC(=O)[C@@H]2C[C@@H](O)CN2C(=O)[C@@H](NC(=O)c2ccnc(N3CCN(c4cnnc(-c5ccccc5O)c4)CC3)c2)C(C)(C)C)cc1` [Example 11, N—((S)-1-((2S,4R)-4-Hydroxy-2-(((S)-1-(4-(4-methylthiazol-5-yl)phenyl)ethyl)carbamoyl)pyrrolidin-1-yl)-3,3-dimethyl-1-oxobutan-2-yl)-2-(4-(6-(2-hydroxyphenyl)pyridazin-4-yl)piperazin-1-yl)isonicotinamide], for which the “A375 SMARCA4 MSD IC50 IP” value in assay [2] is given as “N/C”. Moreover, in assay [1], the DC50 was determined as 350 nM.
With `Cc1ncsc1-c1ccc([C@H](C)NC(=O)[C@@H]2C[C@@H](O)CN2C(=O)[C@@H](NC(=O)CN2CCN(c3cc(-c4ccccc4O)nnc3N)CC2)C(C)(C)C)cc1` [compound 1, (2S,4R)-1-((S)-2-(2-(4-(3-Amino-6-(2-hydroxyphenyl)pyridazin-4-yl)piperazin-1-yl)acetamido)-3,3-dimethylbutanoyl)-4-hydroxy-N—((S)-1-(4-(4-methylthiazol-5-yl)phenyl)ethyl)pyrrolidine-2-carboxamide, reference compound], the DC50 in assay [2] (read-out: A375 SMARCA4 MSD IC50 IP) was found to be 840 nM; in assay [1] it was 250 nM.
For `Cc1ncsc1-c1ccc([C@H](C)NC(=O)[C@@H]2C[C@@H](O)CN2C(=O)[C@@H](NC(=O)CN2CCN(c3cc(-c4cccc(F)c4O)nnc3N)CC2)C(C)(C)C)cc1` [compound 2, (2S,4R)-1-((S)-2-(2-(4-(3-Amino-6-(3-fluoro-2-hydroxyphenyl)pyridazin-4-yl)piperazin-1-yl)acetamido)-3,3-dimethylbutanoyl)-4-hydroxy-N—((S)-1-(4-(4-methylthiazol-5-yl)phenyl)ethyl)pyrrolidine-2-carboxamide, reference compound], the DC50 in assay [1] turned out to be 420 nM.
